Test results as given in patent US9758526B2, “Quinoline-substituted compound” (TAIHO PHARMACEUTICAL CO., LTD., priority 2013, dated 2017).

How the values were obtained:
EGFR (d746-750/T790M) = target: T1, EGFR (d746-750/T790M) (Homo sapiens, UniProt P00533, DEL746-750/T790M); experiment: EGFR (d746-750/T790M) kinase inhibitory activity; type: biochemical; details: ATP 1.5 μM
T1 construct: purchased Carna Biosciences, Inc
Procedure: (§1) Among the materials of the inhibitory activity measurement, the substrate peptide and the kinase protein were obtained as follows. A peptide with biotinylated N-terminus (biotin-EEPLYWSFPAKKK) was synthesized with reference to FL-Peptide 22, a reagent for LabChip® series of PerkinElmer, Inc. For the kinase protein, a purified recombinant human EGFR (T790M/L858R) protein of Carna Biosciences, Inc. was purchased.
(§2) The inhibitory activity measurement was performed as follows. The compounds of the present invention were individually dissolved in dimethyl sulfoxide (DMSO), and serial dilutions of these compounds were prepared using DMSO. Subsequently, a solution containing the substrate peptide (final concentration: 250 nM), magnesium chloride (final concentration: 10 mM), manganese chloride (final concentration: 10 mM), and ATP (final concentration: 1 μM) in a buffer solution for kinase reaction (Carna Biosciences, Inc.) was mixed with the dilutions of the compounds (final concentration of DMSO upon kinase reaction: 2.5%) or DMSO (final concentration: 2.5%). EGFR (T790M/L858R) protein was further added thereto, and the mixtures were incubated at 25° C. for 120 minutes to carry out a kinase reaction. EDTA was added thereto to a final concentration of 24 mM to thereby terminate the reaction. A phosphorylated thyrosine detection solution containing europium (Eu)-labeled anti-phosphorylated tyrosine antibody PT66 (PerkinElmer, Inc.) and SureLight APC-SA (PerkinElmer, Inc.) was added to the reaction mixtures, and the mixtures were allowed to stand at room temperature for 2 hours or more. For the background, a sample to which EDTA was added before addition of EGFR (T790M/L858R) protein was incubated at 25° C. for 120 minutes, using DMSO instead of the DMSO solution of the compound. The detection solution was also added to this sample, and the mixture was allowed to stand for 2 hours or more. Finally, for all of the test samples, the amount of fluorescence at the time of irradiation of excitation light having a wavelength of 337 nm was measured at dual wavelengths of 620 nm and 665 nm by PHERAstar FS (BMG LABTECH), and a ratio of the fluorescence amounts at the two wavelengths was obtained as data.
(§3) Based on the above rates, phosphorylation inhibition rates (%) were calculated for the samples to which various concentrations of the compound solutions were added. Finally, the obtained reaction inhibition rates (%) at the respective concentrations were plotted for each compound, and the IC50 value (nM), which is a compound concentration at which phosphorylation by EGFR (T790M/L858R) is inhibited by 50%, was determined using XLfit curve-fitting software (IDBS).
The inhibitory activities of the compounds of the present invention against EGFR (d746-750/T790M) kinase activity were measured.
The materials, the measurement method, and the data analysis method were substantially the same as those shown in the above description regarding “Measurement of EGFR (T790M/L858R) Kinase Inhibitory Activity,” except that a purified recombinant human EGFR (d746-750/T790M) protein purchased from Carna Biosciences, Inc. was used as the kinase protein, and the measurement was performed with an ATP final concentration of 1.5 μM. Finally, the IC50 value (nM) of each compound with respect to EGFR (d746-750/T790M) was determined by data analysis.

[1] = tested on: A431 expressing EGFR (WT); experiment: Growth inhibition, A431 expressing EGFR (WT); type: cell-based; details: Homo sapiens, A-431, 72 h; cultured three days, CellTiter-Glo
Procedure: (§4) (1) A human […] lung cancer cell line NCI-H1975 expressing EGFR (T790M/L858R), (2) a human non-small cell lung cancer cell line HCC827 expressing EGFR (d746-750), and (3) a human epithelioid cancer cell line A431 expressing EGFR (WT) were each suspended in complete growth medium recommended by ATCC. The cell suspensions were seeded in each well of a 384-well flat microplate or a 96-well flat plate, and cultured in an incubator containing 5% carbon dioxide gas at 37° C. for one day. Each compound of the present invention was dissolved in DMSO, and serial dilutions of the test compound were prepared using DMSO (to a concentration 500 times the final concentration). The DMSO solution of the test compound or DMSO was diluted with complete growth medium, and the resulting solution was added to each well of the cell culture plate so that the final concentration of DMSO was 0.2%. Then, the cells were cultured in an incubator containing 5% carbon dioxide gas at 37° C. for three days. The number of cells was measured before the addition of the DMSO solution of the test compound, as well as after addition and culture by using a CellTiter-Glo Assay® (produced by Promega) according to a protocol recommended by Promega.
(§5) For each cell, the cell growth inhibition rates of the wells to which the test compounds at various concentrations were added were calculated by the following formula. Then, the obtained inhibition rates (%) at the respective concentrations were plotted for each test compound, and the GI50 value (nM), which is a test compound concentration at which the cell growth can be inhibited by 50%, was determined using XLfit curve-fitting software (IDBS). • Cell Growth Inhibition Rate (%)=(C−T)/(C−CO)×100 • T: Luminescence intensity of well cultured for three days after addition of the test compound solution • C: Luminescence intensity of well cultured for three days after addition of DMSO • C0: Luminescence intensity of well before addition of the test compound solution

EGFR (L858R) = target: T2, EGFR (L858R) (Homo sapiens, UniProt P00533, L858R); experiment: EGFR (L858R) kinase inhibitory activity; type: biochemical; details: ATP 4 μM
T2 construct: purchased Carna Biosciences, Inc
Procedure: as §1, §2, §3
The inhibitory activities of the compounds of the present invention against EGFR (L858R) kinase activity were measured.
The materials, the measurement method, and the data analysis method were substantially the same as those shown in the above description regarding “Measurement of EGFR (T790M/L858R) Kinase Inhibitory Activity,” except that a purified recombinant human EGFR (L858R) protein purchased from Carna Biosciences, Inc. was used as the kinase protein, and the measurement was performed with ATP at a final concentration of 4 μM. Finally, the IC50 value (nM) of each compound with respect to EGFR (L858R) was determined by data analysis.

EGFR (T790M/L858R) = target: T3, EGFR (T790M/L858R) (Homo sapiens, UniProt P00533, L858R/T790M); experiment: EGFR (T790M/L858R) kinase inhibitory activity; type: biochemical; details: ATP 1 μM, 25° C. for 120 minutes
T3 construct: purchased Carna Biosciences, Inc
Procedure: The inhibitory activities of the compounds of the present invention against EGFR (T790M/L858R) kinase activity were measured.
as §1, §2, §3

EGFR (WT) = target: T4, EGFR (WT) (Homo sapiens, UniProt P00533); experiment: EGFR (WT) kinase inhibitory activity; type: biochemical; details: substrate peptide 500 nM
T4 construct: expressing a cytoplasmic domain of human EGFR (WT) with its N-terminus fused to a FLAG tag; FLAG (N); made in house; host or cells: insect Sf9 cells, baculovirus expression system
Procedure: as §1, §2, §3
The inhibitory activities of the compounds of the present invention against EGFR (WT) kinase activity were measured.
The materials, the measurement method, and the data analysis method were substantially the same as those shown in the above description regarding “Measurement of EGFR (T790M/L858R) Kinase Inhibitory Activity,” except that a kinase protein prepared by expressing a cytoplasmic domain of human EGFR (WT) with its N-terminus fused to a FLAG tag in insect Sf9 cells using a baculovirus expression system and then purifying it with anti-FLAG antibody agarose (Sigma-Aldrich) was used as the kinase protein, the final concentration of the substrate peptide was 500 nM, and the final concentration of ATP was […]. Finally, the IC50 value (nM) of each compound with respect to EGFR (WT) was determined by data analysis.

[2] = tested on: HCC827 expressing EGFR (d746-750); experiment: Growth inhibition, HCC827 expressing EGFR (d746-750); type: cell-based; details: Homo sapiens, HCC827, 72 h; cultured three days, CellTiter-Glo
Procedure: as §4, §5

[3] = tested on: NCI-H1975 expressing EGFR (T790M/L858R); experiment: Growth inhibition, NCI-H1975 expressing EGFR (T790M/L858R); type: cell-based; details: Homo sapiens, NCI-H1975, 72 h; cultured three days, CellTiter-Glo
Procedure: as §4, §5

EGFR (d746-750) = target: T5, EGFR (d746-750) (Homo sapiens, UniProt P00533, DEL746-750); experiment: EGFR (d746-750) kinase inhibitory activity; type: biochemical; details: ATP 5 μM, kinase reaction 90 minutes
T5 construct: purchased Carna Biosciences, Inc
Procedure: as §1, §2, §3
The inhibitory activities of the compounds of the present invention against EGFR (d746-750) kinase activity were measured.
The materials, the measurement method, and the data analysis method were substantially the same as those shown in the above description regarding “Measurement of EGFR (T790M/L858R) Kinase Inhibitory Activity,” except that a purified recombinant human EGFR (d746-750) protein purchased from Carna Biosciences, Inc. was used as the kinase protein, the measurement was performed with ATP at a final concentration of 5 μM, and the incubation for the kinase reaction was performed for 90 minutes. Finally, the IC50 value (nM) of each compound with respect to EGFR (d746-750) was determined by data analysis.

T2 sequence (P00533 25-1210 L858R): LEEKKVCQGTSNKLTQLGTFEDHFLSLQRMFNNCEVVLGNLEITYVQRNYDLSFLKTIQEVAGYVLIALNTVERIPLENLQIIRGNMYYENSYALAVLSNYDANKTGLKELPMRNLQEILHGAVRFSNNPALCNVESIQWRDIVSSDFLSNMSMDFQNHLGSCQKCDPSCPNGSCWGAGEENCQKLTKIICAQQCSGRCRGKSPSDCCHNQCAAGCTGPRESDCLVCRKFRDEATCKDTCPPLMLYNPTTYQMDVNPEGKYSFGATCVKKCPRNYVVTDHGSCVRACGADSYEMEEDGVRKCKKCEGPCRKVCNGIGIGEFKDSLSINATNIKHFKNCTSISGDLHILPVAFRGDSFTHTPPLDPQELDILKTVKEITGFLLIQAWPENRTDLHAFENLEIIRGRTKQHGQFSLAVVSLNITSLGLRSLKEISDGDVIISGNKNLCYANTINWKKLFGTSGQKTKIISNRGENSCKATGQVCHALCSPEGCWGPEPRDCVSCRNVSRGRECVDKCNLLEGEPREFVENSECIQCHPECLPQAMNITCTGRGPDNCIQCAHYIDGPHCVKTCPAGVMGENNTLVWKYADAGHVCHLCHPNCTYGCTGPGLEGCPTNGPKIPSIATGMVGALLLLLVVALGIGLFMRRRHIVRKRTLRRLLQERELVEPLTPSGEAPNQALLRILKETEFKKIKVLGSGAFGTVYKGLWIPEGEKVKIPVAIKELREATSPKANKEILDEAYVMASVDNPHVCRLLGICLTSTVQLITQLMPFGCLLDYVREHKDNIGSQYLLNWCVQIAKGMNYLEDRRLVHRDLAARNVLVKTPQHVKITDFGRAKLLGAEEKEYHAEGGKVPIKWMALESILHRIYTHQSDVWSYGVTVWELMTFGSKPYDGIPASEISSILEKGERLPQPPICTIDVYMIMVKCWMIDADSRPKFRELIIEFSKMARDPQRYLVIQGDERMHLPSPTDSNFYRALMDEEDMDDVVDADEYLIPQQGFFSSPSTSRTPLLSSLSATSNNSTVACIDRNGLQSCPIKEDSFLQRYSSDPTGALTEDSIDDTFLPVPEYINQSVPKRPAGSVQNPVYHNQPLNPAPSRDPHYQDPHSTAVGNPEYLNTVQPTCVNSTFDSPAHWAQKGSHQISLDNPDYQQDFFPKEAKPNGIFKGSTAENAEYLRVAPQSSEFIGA
T4 sequence (P00533 669-1210 limits assumed): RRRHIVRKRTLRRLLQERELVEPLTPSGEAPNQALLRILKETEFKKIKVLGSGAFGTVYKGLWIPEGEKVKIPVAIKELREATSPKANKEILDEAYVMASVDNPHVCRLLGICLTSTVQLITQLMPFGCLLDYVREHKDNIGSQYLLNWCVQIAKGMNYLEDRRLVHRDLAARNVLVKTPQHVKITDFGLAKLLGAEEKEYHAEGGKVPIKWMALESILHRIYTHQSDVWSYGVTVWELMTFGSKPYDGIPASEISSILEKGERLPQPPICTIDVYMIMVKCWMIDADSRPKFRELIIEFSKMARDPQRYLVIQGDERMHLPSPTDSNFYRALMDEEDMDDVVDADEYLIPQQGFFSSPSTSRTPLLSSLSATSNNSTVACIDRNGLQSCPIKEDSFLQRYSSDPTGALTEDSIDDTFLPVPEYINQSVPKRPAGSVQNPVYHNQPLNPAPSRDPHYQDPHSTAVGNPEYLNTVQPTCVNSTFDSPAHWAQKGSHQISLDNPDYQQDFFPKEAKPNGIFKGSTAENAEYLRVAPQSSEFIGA
T3 sequence (P00533 25-1210 T790M/L858R): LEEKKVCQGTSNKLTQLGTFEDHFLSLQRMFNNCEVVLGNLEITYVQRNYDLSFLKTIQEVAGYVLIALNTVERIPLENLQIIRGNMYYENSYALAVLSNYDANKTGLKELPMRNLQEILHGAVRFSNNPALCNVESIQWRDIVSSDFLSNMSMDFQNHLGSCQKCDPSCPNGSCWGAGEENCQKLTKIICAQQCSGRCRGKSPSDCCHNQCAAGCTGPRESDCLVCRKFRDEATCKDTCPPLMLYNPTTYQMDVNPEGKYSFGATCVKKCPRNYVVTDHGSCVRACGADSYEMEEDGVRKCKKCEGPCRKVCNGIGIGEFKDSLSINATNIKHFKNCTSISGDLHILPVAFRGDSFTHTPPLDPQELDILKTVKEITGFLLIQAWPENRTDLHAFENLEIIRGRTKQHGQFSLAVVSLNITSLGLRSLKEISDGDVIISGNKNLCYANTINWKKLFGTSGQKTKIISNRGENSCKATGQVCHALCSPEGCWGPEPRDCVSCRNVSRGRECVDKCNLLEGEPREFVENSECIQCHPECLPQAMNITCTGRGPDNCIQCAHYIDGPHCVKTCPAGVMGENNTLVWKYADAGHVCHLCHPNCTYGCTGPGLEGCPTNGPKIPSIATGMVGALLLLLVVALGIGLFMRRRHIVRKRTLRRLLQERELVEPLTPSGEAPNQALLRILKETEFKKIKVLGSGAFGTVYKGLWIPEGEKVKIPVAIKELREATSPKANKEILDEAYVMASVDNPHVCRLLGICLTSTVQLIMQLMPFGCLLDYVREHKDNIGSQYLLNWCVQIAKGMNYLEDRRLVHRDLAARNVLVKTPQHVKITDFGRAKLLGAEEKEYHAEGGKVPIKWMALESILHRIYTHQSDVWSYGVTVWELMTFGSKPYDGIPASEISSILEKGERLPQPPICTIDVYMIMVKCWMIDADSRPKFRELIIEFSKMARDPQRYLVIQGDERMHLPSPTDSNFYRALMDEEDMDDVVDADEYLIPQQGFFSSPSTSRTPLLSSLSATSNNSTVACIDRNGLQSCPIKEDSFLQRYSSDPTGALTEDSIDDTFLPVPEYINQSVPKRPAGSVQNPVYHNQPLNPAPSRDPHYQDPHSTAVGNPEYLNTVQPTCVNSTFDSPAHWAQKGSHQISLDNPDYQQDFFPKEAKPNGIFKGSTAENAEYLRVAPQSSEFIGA
T5 sequence (P00533 with tags, fused parts or gaps DEL746-750 limits assumed): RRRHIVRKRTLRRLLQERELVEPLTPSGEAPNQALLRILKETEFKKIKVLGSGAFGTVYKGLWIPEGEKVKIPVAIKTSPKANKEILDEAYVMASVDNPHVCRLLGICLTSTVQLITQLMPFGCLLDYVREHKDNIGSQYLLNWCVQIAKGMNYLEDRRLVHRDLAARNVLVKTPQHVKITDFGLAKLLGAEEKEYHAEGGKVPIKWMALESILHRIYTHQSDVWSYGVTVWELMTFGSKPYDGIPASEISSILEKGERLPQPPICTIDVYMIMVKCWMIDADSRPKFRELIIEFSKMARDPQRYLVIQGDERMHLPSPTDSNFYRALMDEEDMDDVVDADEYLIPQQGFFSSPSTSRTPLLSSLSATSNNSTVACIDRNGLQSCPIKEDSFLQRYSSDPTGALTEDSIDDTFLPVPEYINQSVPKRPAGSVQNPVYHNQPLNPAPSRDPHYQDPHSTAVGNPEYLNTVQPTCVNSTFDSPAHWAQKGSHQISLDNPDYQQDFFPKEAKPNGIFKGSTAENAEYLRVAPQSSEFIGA
T1 sequence (P00533 with tags, fused parts or gaps DEL746-750/T790M limits assumed): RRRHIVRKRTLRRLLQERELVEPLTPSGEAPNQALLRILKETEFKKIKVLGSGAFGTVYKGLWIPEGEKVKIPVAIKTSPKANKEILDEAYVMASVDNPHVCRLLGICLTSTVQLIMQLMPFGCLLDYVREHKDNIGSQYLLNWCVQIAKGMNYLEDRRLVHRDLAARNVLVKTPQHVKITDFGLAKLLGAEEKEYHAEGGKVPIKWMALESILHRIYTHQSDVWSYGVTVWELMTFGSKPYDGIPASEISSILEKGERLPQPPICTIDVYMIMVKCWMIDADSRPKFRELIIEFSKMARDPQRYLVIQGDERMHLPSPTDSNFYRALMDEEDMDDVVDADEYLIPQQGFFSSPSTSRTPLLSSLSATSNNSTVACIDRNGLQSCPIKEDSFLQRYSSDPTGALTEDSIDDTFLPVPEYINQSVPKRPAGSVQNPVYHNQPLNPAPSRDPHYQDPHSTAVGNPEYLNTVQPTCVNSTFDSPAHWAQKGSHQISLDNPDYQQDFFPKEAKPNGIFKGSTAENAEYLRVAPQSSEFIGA

| Compound | IC50 (EGFR (d746-750/T790M)) [nM] | GI50 [1] [nM] | IC50 (EGFR (L858R)) [nM] | IC50 (EGFR (T790M/L858R)) [nM] | IC50 (EGFR (WT)) [nM] | GI50 [2] [nM] | GI50 [3] [nM] | IC50 (EGFR (d746-750)) [nM] |
| --- | --- | --- | --- | --- | --- | --- | --- | --- |
| C=C1c2c(-c3cnc4ccccc4c3)c3c(N)ncnc3n2C[C@H]1NC(=O)/C=C/CN(C)C [Example 4, (S,E)-N-(4-amino-6-methylene-5-(quinolin-3-yl)-7,8-dihydro-6H-pyrimido[5,4-b]pyrrolizin-7-yl)-4-(dimethylamino)but-2-enamide] | < 0.5 | 2400 | 0.63 | 0.4 | 6 | 5.5 | 140 | 0.45 |
| C=C1c2c(-c3cnc4ccccc4c3)c3c(N)ncnc3n2C[C@H]1NC(=O)/C=C/Cl [Example 5, (S,E)-N-(4-amino-6-methylene-5-(quinolin-3-yl)-7,8-dihydro-6H-pyrimido[5,4-b]pyrrolizin-7-yl)-3-chloroacrylamide] | < 0.15 | 2200 | < 0.15 | < 0.15 | 0.78 | 8.1 | 51 | < 0.15 |
| C=C1c2c(-c3cnc4ccccc4c3)c3c(N)ncnc3n2C[C@H]1NC(=O)/C=C\Cl [Example 6, (S,Z)—N-(4-amino-6-methylene-5-(quinolin-3-yl)-7,8-dihydro-6H-pyrimido[5,4-b]pyrrolizin-7-yl)-3-chloroacrylamide] | < 0.15 | 520 | 0.45 | 0.24 | 4.9 | 3.3 | 54 | 0.24 |
| C=C1c2c(-c3cnc4ccccc4c3)c3c(N)ncnc3n2C[C@H]1NC(=O)/C=C/CN1CCCCC1 [Example 7, (S,E)-N-(4-amino-6-methylene-5-(quinolin-3-yl)-7,8-dihydro-6H-pyrimido[5,4-b]pyrrolizin-7-yl)-4-(piperidin-1-yl)but-2-enamide] | 0.53 | 2600 | 1.7 | 1 | 12 | 5.6 | 150 | 1.2 |
